# Measured values as given in publication PMC12675575, “A BRET biosensor for measuring uncompetitive engagement of PRMT5 complexes in cells” (Nature Communications, 2025).
# Values joined by “and” are separate entries in the source; they are usually repeats but may differ in a detail not shown here. Equal values may be shown once.
# Assays:
# Type in all cases: cell-based
# PRMT5-NL = target: T1, PRMT5-NL (Homo sapiens, UniProt O14744); assay: CBH-002 affinity curve, HEK293, PRMT5-NL fusion with empty carrier DNA (no WDR77); parameters: unit not given here; conditions: Figure S2B NL-PRMT5, log([CBH-002])
# T1 construct: host or cells: HEK293
# T1 sequence (O14744 whole entry, the tested form may be a part): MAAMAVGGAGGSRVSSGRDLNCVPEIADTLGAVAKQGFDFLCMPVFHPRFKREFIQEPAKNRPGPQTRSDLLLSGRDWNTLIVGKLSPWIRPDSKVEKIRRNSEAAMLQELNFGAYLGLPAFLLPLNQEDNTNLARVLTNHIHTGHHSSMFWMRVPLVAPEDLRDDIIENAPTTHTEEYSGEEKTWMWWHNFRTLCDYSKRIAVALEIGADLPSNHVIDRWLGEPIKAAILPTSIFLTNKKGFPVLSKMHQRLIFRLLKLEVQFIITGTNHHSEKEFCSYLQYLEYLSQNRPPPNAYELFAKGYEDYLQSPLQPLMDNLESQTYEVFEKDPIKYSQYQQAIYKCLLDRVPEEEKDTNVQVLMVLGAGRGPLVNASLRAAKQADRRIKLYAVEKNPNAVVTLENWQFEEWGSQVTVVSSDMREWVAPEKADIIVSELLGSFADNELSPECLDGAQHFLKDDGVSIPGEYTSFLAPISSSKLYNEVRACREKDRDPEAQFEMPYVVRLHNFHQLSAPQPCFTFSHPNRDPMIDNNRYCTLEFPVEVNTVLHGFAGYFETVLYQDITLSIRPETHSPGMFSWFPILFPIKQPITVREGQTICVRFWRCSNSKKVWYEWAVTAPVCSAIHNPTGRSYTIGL
# Protocol: (§1) HEK293 cells (ATCC) were cultured in DMEM (Thermo Fisher) + 10% (v/v) FBS (Seredigm), and HCT116 cells (Horizon Discovery, #PAR-034 and #R02-033) were cultured in McCoy’s 5A (Thermo Fisher) + 10% FBS, with incubation in a humidified, 37 °C/5% CO2 incubator. Cells were split 1–3 days prior to performing experiments and used at roughly 80% confluency. […] Cells were transfected according to the manufacturer’s protocol using FuGENE HD (Promega). NanoLuc fusion DNA was diluted into Transfection Carrier DNA (Promega) in Opti-MEM at a ratio of 1:9 (mass/mass), and FuGENE HD was added at a ratio of 1:3 (μg DNA:μL lipid). For experiments using WDR77, untagged WDR77 DNA (Promega) was used in place of Carrier DNA. Formed complexes were combined with cells resuspended to a density of 2 × 10^5 cells/mL in Opti-MEM + 1% FBS at a ratio of 1:20 (vol:vol). Cells were plated into a flask and incubated at 37 °C in a humidified 5% CO2 atmosphere for 18–24 h, before being lifted and seeded into 96-well non-binding surface-treated plates (Corning). Cells were seeded at a density of 2 × 10^5 cells/mL in Opti-MEM + 1% FBS in 100 μL (96-well). The BRET probe CBH-002 was prepared first as a 100× stock in 100% DMSO (Sigma) and then diluted to a 20× stock in NanoBRET Tracer Dilution buffer (Promega). Test compounds were prepared as 1000× stocks in 100% DMSO and diluted to 10× stocks in Opti-MEM to prepare working stocks. […] NanoBRET Complete 3x Substrate was prepared by combining Nano-Glo Substrate and Extracellular NanoLuc Inhibitor in Opti-MEM, according to the manufacturer’s protocol (Promega). NanoBRET Complete 3× Substrate was added to cells and plates were measured on either a PheraSTAR FSX equipped with 450 nm (donor) and 610 nm (acceptor) filters, or a GloMAX Discover equipped with 450/8 nm BP (donor) and 600 nm LP (acceptor) filters, using a 0.3 s integration time.
# (§2) EC50 values were obtained by fitting the BRET probe and compound affinity curves to a sigmoidal four-parameter fit model in Graphpad Prism:1 Y=Ymin+Ymax−Ymin/1+10^LogEC50−Xh where h is the Hill Slope.
# BRD9 = target: T2, BRD9 (Homo sapiens, UniProt Q9H8M2); assay: CBH-002 affinity curve, HEK293, NL-BRD9 fusion (nuclear control); parameters: BRET, CBH-002 + DMSO / BRET, CBH-002 + GSK3326595: unit not given here; conditions: for BRET, CBH-002 + DMSO / BRET, CBH-002 + GSK3326595: Figure S2F NL-BRD9, log([CBH-002])
# T2 construct: host or cells: HEK293
# T2 sequence (Q9H8M2 1-597): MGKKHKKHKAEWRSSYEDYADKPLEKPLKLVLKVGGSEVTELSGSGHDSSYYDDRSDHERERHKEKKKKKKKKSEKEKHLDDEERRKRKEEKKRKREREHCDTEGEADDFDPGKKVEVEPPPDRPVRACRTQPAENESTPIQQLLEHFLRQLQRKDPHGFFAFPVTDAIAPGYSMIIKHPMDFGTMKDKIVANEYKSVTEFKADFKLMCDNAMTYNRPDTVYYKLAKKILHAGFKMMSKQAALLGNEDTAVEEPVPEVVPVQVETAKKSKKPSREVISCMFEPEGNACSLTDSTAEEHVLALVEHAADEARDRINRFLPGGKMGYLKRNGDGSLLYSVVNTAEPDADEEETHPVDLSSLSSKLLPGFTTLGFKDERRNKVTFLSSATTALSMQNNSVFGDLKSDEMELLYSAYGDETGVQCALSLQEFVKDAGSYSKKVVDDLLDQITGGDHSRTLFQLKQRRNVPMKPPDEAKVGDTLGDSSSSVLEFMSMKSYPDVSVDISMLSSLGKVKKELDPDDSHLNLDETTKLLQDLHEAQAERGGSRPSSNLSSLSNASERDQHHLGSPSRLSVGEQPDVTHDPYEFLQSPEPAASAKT
# Protocol: as §1, §2
# NLuc-PRMT5 = NLuc-PRMT5 (Homo sapiens, UniProt O14744); assay: BRET probe CBH-002 binding kinetics (association, dissociation by GSK3326595) in live HEK293 cells; parameters: host or cells: HEK293 (live cells; digitonin lysate for the SAM titration); Tracer association (Figure S3C): unit not given here
# Sequence of NLuc-PRMT5 (O14744 whole entry): as the sequence (O14744 whole entry, the tested form may be a part) above
# Sequence of NLuc-PRMT5 (Q9BQA1 whole entry partner): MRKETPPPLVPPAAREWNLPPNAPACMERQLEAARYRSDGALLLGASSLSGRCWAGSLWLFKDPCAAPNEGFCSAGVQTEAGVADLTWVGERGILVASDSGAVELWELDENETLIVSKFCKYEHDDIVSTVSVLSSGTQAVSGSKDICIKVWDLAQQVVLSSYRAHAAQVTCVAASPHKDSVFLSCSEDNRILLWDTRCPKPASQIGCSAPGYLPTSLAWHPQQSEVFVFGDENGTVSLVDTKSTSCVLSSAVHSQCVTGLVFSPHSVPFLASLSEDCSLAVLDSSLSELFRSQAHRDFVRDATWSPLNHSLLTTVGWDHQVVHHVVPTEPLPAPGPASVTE
# Protocol: To determine BRET probe binding kinetics, live HEK293 cells were treated with 30 nM CBH-002 and BRET measurements were read in 3 min intervals for 2 h at room temperature.
# RIPK2 = target: T3, RIPK2 (Homo sapiens, UniProt O43353); assay: CBH-002 affinity curve, HEK293, RIPK2-NL fusion (cytosolic control); parameters: BRET, CBH-002 + DMSO / BRET, CBH-002 + GSK3326595: unit not given here; conditions: for BRET, CBH-002 + DMSO / BRET, CBH-002 + GSK3326595: Figure S2E RIPK2-NL, log([CBH-002])
# T3 construct: host or cells: HEK293
# T3 sequence (O43353 whole entry, the tested form may be a part): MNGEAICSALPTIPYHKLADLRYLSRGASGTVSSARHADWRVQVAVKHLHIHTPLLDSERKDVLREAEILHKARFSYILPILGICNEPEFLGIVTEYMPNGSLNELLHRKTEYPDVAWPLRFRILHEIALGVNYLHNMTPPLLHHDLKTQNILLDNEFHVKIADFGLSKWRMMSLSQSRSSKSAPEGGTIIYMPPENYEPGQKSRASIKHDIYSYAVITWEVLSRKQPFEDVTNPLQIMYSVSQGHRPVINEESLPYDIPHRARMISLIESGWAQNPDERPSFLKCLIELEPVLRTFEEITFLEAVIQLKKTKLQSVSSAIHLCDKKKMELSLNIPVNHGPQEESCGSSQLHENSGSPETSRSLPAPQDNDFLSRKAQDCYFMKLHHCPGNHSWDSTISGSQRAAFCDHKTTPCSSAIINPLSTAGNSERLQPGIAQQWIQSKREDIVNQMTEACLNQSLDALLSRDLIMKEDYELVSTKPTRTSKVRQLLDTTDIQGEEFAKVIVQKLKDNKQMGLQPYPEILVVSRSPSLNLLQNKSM
# Protocol: as §1, §2
compound,measurement,setting,value
O=C(CCc1ccc2n1[B-](F)(F)[N+]1=C(c3ccc[nH]3)C=CC1=C2)NCCCCC(=O)N1CCC(Nc2cc(C(=O)NC[C@H](O)CN3CCc4ccccc4C3)ncn2)CC1 [CBH-002],"BRET, CBH-002 + DMSO",PRMT5-NL; uM -1.03342,12.5404 and 13.4407 and 13.3166
same,"BRET, CBH-002 + GSK3326595",PRMT5-NL; uM -1.03342,8.441 and 8.865 and 8.461
same,"BRET, CBH-002 + DMSO",PRMT5-NL; uM -1.51055,10.7353 and 11.0633 and 11.2052
same,"BRET, CBH-002 + GSK3326595",PRMT5-NL; uM -1.51055,5.349 and 5.866 and 6.032
same,"BRET, CBH-002 + DMSO",PRMT5-NL; uM -1.98767,8.8779 and 8.604 and 8.921
same,"BRET, CBH-002 + GSK3326595",PRMT5-NL; uM -1.98767,5.328 and 5.307 and 5.5055
same,"BRET, CBH-002 + DMSO",PRMT5-NL; uM -2.46479,7.2471 and 8.258 and 8.573
same,"BRET, CBH-002 + GSK3326595",PRMT5-NL; uM -2.46479,3.609 and 3.848 and 3.767
same,"BRET, CBH-002 + DMSO",PRMT5-NL; uM -2.94191,6.802 and 7.308 and 6.803
same,"BRET, CBH-002 + GSK3326595",PRMT5-NL; uM -2.94191,2.864 and 2.956 and 2.6211
same,"BRET, CBH-002 + DMSO",PRMT5-NL; uM -3.41903,6.051 and 5.88 and 6.095
same,"BRET, CBH-002 + GSK3326595",PRMT5-NL; uM -3.41903,2.538 and 2.522 and 2.796
same,"BRET, CBH-002 + DMSO",PRMT5-NL; uM -3.89615,5.285 and 4.8415 and 5.242
same,"BRET, CBH-002 + GSK3326595",PRMT5-NL; uM -3.89615,2.512 and 2.541 and 2.599
same,"BRET, CBH-002 + DMSO",BRD9; uM 0.04576,1.963 and 1.6096 and 1.753
same,"BRET, CBH-002 + GSK3326595",BRD9; uM 0.04576,1.941 and 1.894 and 1.502
same,"BRET, CBH-002 + DMSO",BRD9; uM 0.52288,4.746 and 4.673 and 4.368
same,"BRET, CBH-002 + GSK3326595",BRD9; uM 0.52288,4.553 and 4.659 and 4.5888
same,"BRET, CBH-002 + DMSO",BRD9; uM 1,11.9924 and 12.071 and 11.0213
same,"BRET, CBH-002 + GSK3326595",BRD9; uM 1,12.0831 and 11.2046 and 11.118
same,"BRET, CBH-002 + DMSO",BRD9; uM -0.43136,0.6619 and 0.5821 and 0.5347
same,"BRET, CBH-002 + GSK3326595",BRD9; uM -0.43136,0.7878 and 0.6009 and 0.5811
same,CBH-002 engagement at BRD9 (printed BDR9),"BRD9; HEK293, NL-BRD9",did not show engagement
same,Tracer association (Figure S3C),NLuc-PRMT5; Time (min) -27,84.20 and 89.90 and 88.10 and 83.20
same,Tracer association (Figure S3C),NLuc-PRMT5; Time (min) -30,82.70 and 89.80 and 85.50 and 82.10
same,Tracer association (Figure S3C),NLuc-PRMT5; Time (min) -33,82.30 and 86.20 and 84.70 and 81.40
same,Tracer association (Figure S3C),NLuc-PRMT5; Time (min) -36,79.10 and 84.40 and 82.30 and 79.90
same,Tracer association (Figure S3C),NLuc-PRMT5; Time (min) -39,78.00 and 83.20 and 80.40 and 77.80
same,Tracer association (Figure S3C),NLuc-PRMT5; Time (min) -42,74.70 and 81.80 and 78.20 and 76.90
same,Tracer association (Figure S3C),NLuc-PRMT5; Time (min) -45,72.40 and 79.70 and 77.50 and 73.60
same,Tracer association (Figure S3C),NLuc-PRMT5; Time (min) -48,71.50 and 77.50 and 73.90 and 72.30
same,Tracer association (Figure S3C),NLuc-PRMT5; Time (min) -51,70.80 and 74.30 and 71.70 and 69.80
same,Tracer association (Figure S3C),NLuc-PRMT5; Time (min) -54,67.60 and 72.60 and 69.10 and 66.30
same,Tracer association (Figure S3C),NLuc-PRMT5; Time (min) -57,64.20 and 69.60 and 66.90 and 64.40
same,Tracer association (Figure S3C),NLuc-PRMT5; Time (min) -60,62.40 and 67.20 and 64.20 and 62.00
same,Tracer association (Figure S3C),NLuc-PRMT5; Time (min) -63,58.70 and 64.40 and 60.70 and 59.40
same,Tracer association (Figure S3C),NLuc-PRMT5; Time (min) -66,56.10 and 60.10 and 57.50
same,Tracer association (Figure S3C),NLuc-PRMT5; Time (min) -69,53.40 and 56.10 and 54.60 and 53.80
same,Tracer association (Figure S3C),NLuc-PRMT5; Time (min) -72,50.10 and 53.80 and 51.80
same,Tracer association (Figure S3C),NLuc-PRMT5; Time (min) -75,46.70 and 49.90 and 47.90 and 46.40
same,Tracer association (Figure S3C),NLuc-PRMT5; Time (min) -78,43.20 and 46.00 and 44.30 and 42.50
same,Tracer association (Figure S3C),NLuc-PRMT5; Time (min) -81,39.30 and 42.30 and 40.80 and 39.10
same,Tracer association (Figure S3C),NLuc-PRMT5; Time (min) -84,36.10 and 38.40 and 35.80
same,Tracer association (Figure S3C),NLuc-PRMT5; Time (min) -87,31.70 and 33.50 and 32.20 and 31.50
same,Tracer association (Figure S3C),NLuc-PRMT5; Time (min) -90,27.90 and 29.40 and 28.10 and 27.70
same,Tracer association (Figure S3C),NLuc-PRMT5; Time (min) -93,22.90 and 24.80 and 24.00 and 23.50
same,Tracer association (Figure S3C),NLuc-PRMT5; Time (min) -96,18.60 and 20.70 and 19.20
same,Tracer association (Figure S3C),NLuc-PRMT5; Time (min) -99,13.20 and 15.60 and 14.50
same,Tracer association (Figure S3C),NLuc-PRMT5; Time (min) -102,7.40 and 9.50 and 8.80 and 9.10
same,Time for BRET biosensor to reach equilibrium,"NLuc-PRMT5; live cells, room temperature, 30 nM CBH-002",~ 2 h
same,"BRET, CBH-002 + DMSO",RIPK2; uM 0.04576,1.852 and 1.939 and 2.142
same,"BRET, CBH-002 + GSK3326595",RIPK2; uM 0.04576,1.842 and 1.813 and 1.9392
same,"BRET, CBH-002 + DMSO",RIPK2; uM 0.52288,5.1141 and 4.646 and 5.258
same,"BRET, CBH-002 + GSK3326595",RIPK2; uM 0.52288,4.515 and 4.266 and 4.4734
same,"BRET, CBH-002 + DMSO",RIPK2; uM 1,11.7522 and 11.9286 and 12.3306
same,"BRET, CBH-002 + GSK3326595",RIPK2; uM 1,11.5342 and 11.3369 and 11.377
same,"BRET, CBH-002 + DMSO",RIPK2; uM -0.43136,0.8543 and 0.8172 and 0.8282
same,"BRET, CBH-002 + GSK3326595",RIPK2; uM -0.43136,0.5912 and 0.5546 and 0.9723
same,CBH-002 engagement at RIPK2,"RIPK2; HEK293, RIPK2-NL",did not show engagement
